# Results published in patent US20230310654A1 (priority 2020, published 2023).
# Legend:
# [1] = tested on: juvenile mice; settings: mouse, in vivo
# [2] = tested on: CBE mouse model; settings: in vivo
# [3] = tested on: male cynomolgus monkeys; settings: cynomolgus monkey, in vivo
Compound,lethality (mice died by P27) [1],body weight ([1]; ip),adverse effects in peripheral tissues [2],inhibition of PR001A-encoded and endogenous GCase activity by CBE treatment [2],reduction of effective GCase activity in tissues following treatment with CBE [2],effect on safety or biodistribution of PR001A [3]
conduritol-β-epoxide [CBE],5 of the 8,failure to gain weight,No adverse effects,approximately 50%,up to 60%,–
CO[C@H]1C[C@@H]2CC[C@@H](C)[C@@](O)(O2)C(=O)C(=O)N2CCCC[C@H]2C(=O)O[C@H]([C@H](C)C[C@@H]2CC[C@@H](O)[C@H](OC)C2)CC(=O)[C@H](C)/C=C(\C)[C@@H](O)[C@@H](OC)C(=O)[C@H](C)C[C@H](C)/C=C/C=C/C=C/1C [rapamycin],–,–,–,–,–,did not appear to have any effect
